Consider 13 molecules from patent US20250176598A1, “AMIDE COMPOUNDS AND THEIR USE AS FLAVOR MODIFIERS” (Firmenich Incorporated, priority 2022, published 2025).

The assay addresses T1, T1R umami taste receptor (Homo sapiens, UniProt Q7RTX0+Q7RTX1).
T1 sequence (Q7RTX1 21-841): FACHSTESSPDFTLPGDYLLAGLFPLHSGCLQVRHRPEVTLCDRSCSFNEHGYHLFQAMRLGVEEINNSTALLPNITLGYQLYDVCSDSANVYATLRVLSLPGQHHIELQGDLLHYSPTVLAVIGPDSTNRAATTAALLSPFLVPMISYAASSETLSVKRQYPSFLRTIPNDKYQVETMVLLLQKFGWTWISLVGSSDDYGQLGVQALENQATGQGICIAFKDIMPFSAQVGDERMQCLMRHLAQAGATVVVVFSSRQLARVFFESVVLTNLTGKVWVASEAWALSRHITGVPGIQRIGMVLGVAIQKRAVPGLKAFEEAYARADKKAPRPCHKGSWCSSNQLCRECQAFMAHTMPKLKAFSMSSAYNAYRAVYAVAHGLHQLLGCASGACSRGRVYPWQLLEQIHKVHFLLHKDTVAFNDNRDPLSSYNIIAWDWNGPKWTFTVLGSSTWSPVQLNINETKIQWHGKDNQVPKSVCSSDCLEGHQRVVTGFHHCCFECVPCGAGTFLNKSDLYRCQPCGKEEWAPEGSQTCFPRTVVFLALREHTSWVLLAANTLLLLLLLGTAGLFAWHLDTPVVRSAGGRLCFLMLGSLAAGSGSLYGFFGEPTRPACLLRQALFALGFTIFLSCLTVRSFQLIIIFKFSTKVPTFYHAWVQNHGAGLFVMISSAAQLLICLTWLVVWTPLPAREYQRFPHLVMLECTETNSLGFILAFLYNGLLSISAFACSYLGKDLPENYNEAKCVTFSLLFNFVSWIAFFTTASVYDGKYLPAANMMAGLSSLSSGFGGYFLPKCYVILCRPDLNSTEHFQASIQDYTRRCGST
T1 sequence (Q7RTX0 21-852): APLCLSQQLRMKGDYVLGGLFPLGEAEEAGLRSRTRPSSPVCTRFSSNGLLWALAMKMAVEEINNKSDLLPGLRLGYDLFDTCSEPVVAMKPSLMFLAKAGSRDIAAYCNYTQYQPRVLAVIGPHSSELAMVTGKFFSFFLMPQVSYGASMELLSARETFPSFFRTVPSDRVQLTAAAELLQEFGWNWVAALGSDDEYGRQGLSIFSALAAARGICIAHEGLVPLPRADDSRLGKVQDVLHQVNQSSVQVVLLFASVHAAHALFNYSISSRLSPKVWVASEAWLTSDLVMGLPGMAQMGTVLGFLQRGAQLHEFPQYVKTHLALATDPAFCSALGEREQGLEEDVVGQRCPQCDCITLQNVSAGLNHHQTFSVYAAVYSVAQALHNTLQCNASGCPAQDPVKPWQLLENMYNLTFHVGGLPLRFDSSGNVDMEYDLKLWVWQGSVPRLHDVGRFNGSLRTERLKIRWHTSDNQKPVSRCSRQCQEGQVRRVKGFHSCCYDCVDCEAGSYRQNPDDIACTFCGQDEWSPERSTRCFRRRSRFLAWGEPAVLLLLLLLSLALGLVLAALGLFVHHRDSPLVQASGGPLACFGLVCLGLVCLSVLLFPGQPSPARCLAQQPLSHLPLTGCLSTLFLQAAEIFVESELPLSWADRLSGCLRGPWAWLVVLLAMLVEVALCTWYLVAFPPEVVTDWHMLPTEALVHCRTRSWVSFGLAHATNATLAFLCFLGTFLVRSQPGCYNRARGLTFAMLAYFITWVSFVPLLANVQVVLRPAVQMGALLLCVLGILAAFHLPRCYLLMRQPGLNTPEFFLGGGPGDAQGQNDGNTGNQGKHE
In words: in vitro cell-based assay, cells expressing the T1R umami taste receptor; enhancement of MSG. The conditions noted are these: for MSG Enh. Ratio: MSG enhancement ratio at a particular concentration (concentration not given); for EC50: cells that express the T1R umami taste receptor, dose-binding curves. The method, then:
Each of Compounds 101-145 was synthesized according to one of the general procedures set forth above in Examples 1 and Example 2. Thereafter, the compounds were tested in an in vitro cell-based assay having cells that express the T1R umami taste receptor. Dose-binding curves were recorded and the EC50 was determined for enhancement of MSG binding. Table 2 sets forth the calculated EC50 values for certain tested compounds as well as the MSG enhancement ratio at a particular concentration.

Each structure is given as a SMILES string. Some results are limits rather than exact numbers.

With `CCC(C)[C@@H](CO)NC(=O)/C=C/c1ccc(OC)cc1` (stereo in doubt) [Compound 115, (E)-N-((2S,3R)-1-hydroxy-3-methylpentan-2-yl)-3-(4-methoxyphenyl)acrylamide], the “MSG Enh. Ratio” value is given as 1.5 and the EC50 (commonly the midpoint of the concentration-response curve) is over 50 µM.
With `CCOc1ccc(/C=C/C(=O)N[C@H](CO)Cc2ccccc2)cc1` [Compound 119, (S,E)-3-(4-ethoxyphenyl)-N-(1-hydroxy-3-phenylpropan-2-yl)acrylamide], the EC50 stood at 10 µM. Moreover, under “compound at 10 uM”, the “MSG Enh. Ratio @ [10 uM]” value is 6.1 @ [10 uM].
Regarding `CC[C@H](C)[C@@H](CO)NC(=O)c1ccc(C)c(C)c1` [Compound 106, N-((2S,3S)-1-hydroxy-3-methylpentan-2-yl)-3,4-dimethylbenzamide], the “MSG Enh. Ratio” value was 2.5 and the EC50 was over 50 µM.
In the same order, the values of `Cc1ccc(C(=O)N[C@@H](CCC(=O)O)C(=O)O)cc1C` [Compound 128, (3,4-dimethylbenzoyl)-L-glutamic acid] are 1.4 and over 50 µM.
In the same order, the values of `COc1cc(OC)cc(C(=O)N[C@H](CO)Cc2ccccc2)c1` [Compound 107, (S)-N-(1-hydroxy-3-phenylpropan-2-yl)-3,5-dimethoxybenzamide] are 1.9 and over 50 µM.
For `O=C(N[C@H](CO)Cc1ccccc1)c1ccc2c(c1)OCO2` [Compound 111, (S)-N-(1-hydroxy-3-phenylpropan-2-yl) benzo[d][1,3]dioxole-5-carboxamide] the same measures were 1.8 and over 50 µM.
On to `CC(C)c1ccc(C(=O)N[C@H](CO)Cc2ccccc2)cc1` [Compound 101, (S)-N-(1-hydroxy-3-phenylpropan-2-yl)-4-isopropylbenzamide], for which the “MSG Enh. Ratio” value was 1.4 and the EC50 was over 50 µM.
On to `COc1ccc(C[C@H](NC(=O)/C=C/c2ccc(OC)c(OC)c2)C(=O)O)cc1` [Compound 141, (S,E)-2-(3-(3,4-dimethoxyphenyl)acrylamido)-3-(4-methoxyphenyl)propanoic acid], for which the “MSG Enh. Ratio” value turned out to be 1.6 and the EC50 is over 50 µM.
Regarding `CC(C)C[C@@H](NC(=O)c1ccc2c(c1)OCO2)C(=O)O` [Compound 129, (benzo[d][1,3]dioxole-5-carbonyl)-D-leucine], the “MSG Enh. Ratio” value is 3.5 and the EC50 is about 20 µM.
Regarding `CCOc1ccc(/C=C/C(=O)N[C@H](CO)CC(C)C)cc1` [Compound 117, (S,E)-3-(4-ethoxyphenyl)-N-(1-hydroxy-4-methylpentan-2-yl)acrylamide], the “MSG Enh. Ratio” value amounted to 6.8 and the EC50 is about 25 µM.
For `COc1ccc(C[C@H](NC(=O)c2ccc(C)c(C)c2)C(=O)O)cc1` [Compound 127, (S)-2-(3,4-dimethylbenzamido)-3-(4-methoxyphenyl) propanoic acid] the same measures were 2.0 and over 50 µM.
`Cc1ccc(C(=O)N[C@@H](C(=O)O)C(C)C)cc1C` [Compound 124, (3,4-dimethylbenzoyl)-D-valine]: the “MSG Enh. Ratio” value is given as 1.2 and the EC50 was over 50 µM.
Regarding `CCOc1ccc(/C=C/C(=O)N[C@H](CO)[C@@H](C)CC)cc1` [Compound 118, (E)-3-(4-ethoxyphenyl)-N-((2S,3S)-1-hydroxy-3-methylpentan-2-yl)acrylamide], the “MSG Enh. Ratio” value is 6.0 and the EC50 was about 40 µM.
